Reference: US9763444B2, “Compositions and methods for repelling blood-sucking and biting insects, ticks and mites” (The United States of America, as represented by the …, priority 2013, dated 2017)

Experiments:
[1] = test system: An. albimanus; assay: Minimum Effective Dosage (MED) test on treated cloth, mosquito repellency; assay type: in vivo, Anopheles albimanus; settings: Table 4, highest concentration 1.500 mg/cm^2; for An. albimanus Minimum Effective Dosage, M4: subject M4; for An. albimanus Minimum Effective Dosage, M5: subject M5; for An. albimanus Minimum Effective Dosage, M8: subject M8; for An. albimanus Minimum Effective Dosage, M9: subject M9; for An. albimanus Minimum Effective Dosage, M10: subject M10
[2] = test system: Ae. aegypti; assay: as above; assay type: in vivo, Aedes aegypti; settings: for mosquito repellent activity against Ae. aegypti (in words): MED test on treated cloth; for Ae. aegypti Minimum Effective Dosage, M9: human subject M9; for Ae. aegypti Minimum Effective Dosage, M10: human subject M10
Protocol: Bioassay for mosquito repellent activity: Repellency screening test for experimental chemicals were carried out to identify candidates that might be useful repellents. The repellent efficacy was compared to that of the standard repellent, DEET. Experimental compounds were assessed in one of two ways: (1) a range of concentration was evaluated to determine the minimum effective dosage (MED) which was the concentration threshold of where the repellent began to fail and allowed bites, or (2) a predetermined concentration of each repellent was applied to cloth and the activity was evaluated over several days (or in some cases months) (Katritzky, A. R., et al., Proc. Nat. Acad. Sci. (US), 105, 7359-7364 (2008); Katritzky, A. R., et al., Journal of Med. Entomol., 47: 924-938 (2010)). When conducting assays for repellency, a failure point was also predetermined for those measurements. Since experiments described herein used about 500 female mosquitoes per test, the failure point was set at 1% (equal to 5 bites) received during a test interval. From 3 to 5 volunteers participated in the screening of each set of chemicals.
Minimum Effective Dosage (MED) Test: The MED bioassays on treated cloth were a method of screening to determine the minimum amount of a repellent needed to prevent bites. Experimental compounds were prepared in solution by combining 0.15 g of experimental chemical with 2 mL of acetone in a 7.1 mL screwtop glass vial. This solution was then serially diluted to obtain nine concentrations when applied on to the cloth patch: 1.5, 0.75, 0.375, 0.187, 0.094, 0.047, 0.023, 0.011, and 0.006 mg/cm^2. The standard N,N-diethyl-3-methylbenzamide (DEET) was also tested at the same concentration levels to serve as a control and a comparison for relative repellency. A 50 cm^2 (5 cm×10 cm) patch of muslin cloth was rolled lengthwise and placed into each of the glass vials and scaled with a screwtop so it soaked up the solution. Just prior to the experiment, the pieces of treated cloth were removed from the vials, affixed to card stock tabs (5 cm×3 cm) with staples, and hung with masking tape on a rack to dry and allow acetone to evaporate. Volunteers wore a latex glove over their hands, a nylon stocking over their arm, and then wrapped a plastic Velcro-sealed sleeve over their entire forearm with a 32 cm^2 (4 cm×8 cm) window cut-out to allow mosquitoes to bite through. The nylon stocking acted as a barrier between the dried cloth and the skin, an additional precaution with experimental compounds. Dried cloth patches were stretched across the window in the plastic sleeve and held in place with masking tape. Volunteers placed their sleeve-covered arms into a screened cage for a one minute period with approximately 500 female Ae. aegypti mosquitoes that had been preselected for host-seeking behavior using a draw box (Posey, K. H., and C. E. Schreck, Mosquito News, 41: 566-568 (1981)). […] The MED recorded was the lowest passing concentration level tested for the experimental compound. […] All human volunteers in the study provided informed consent to participate of a protocol approved by the University of Florida Human Use Institutional Review Board (IRB #636-2005).

[3] = Table 1 preliminary assay, human subject M4, highest concentration 1.500 mg/cm^2
[4] = Table 1 preliminary assay, human subject M5, highest concentration 1.500 mg/cm^2
[5] = Table 1 preliminary assay, human subject M8, highest concentration 1.500 mg/cm^2
[6] = Table 1 preliminary assay, highest concentration 1.500 mg/cm^2
[7] = Table 5, subject M4, highest dose 0.375 mg/cm2 (0.187 for 7)
[8] = Table 5, subject M5, highest dose 0.375 mg/cm2 (0.187 for 7)
[9] = Table 5, subject M8, highest dose 0.375 mg/cm2 (0.187 for 7)

## CC(=O)c1ccc2c(c1O)C=CC(C)(C)O2 [Compound 3]
[1]
  An. albimanus Minimum Effective Dosage, M4: 0.094 mg/cm^2
  An. albimanus Minimum Effective Dosage, M5: >1.500 mg/cm^2
  An. albimanus Minimum Effective Dosage, M8: >1.500 mg/cm^2
  An. albimanus Minimum Effective Dosage, M9: 0.375 mg/cm^2
  An. albimanus Minimum Effective Dosage, M10: >1.500 mg/cm^2
[2]
  mosquito repellent activity against Ae. aegypti (in words): least repellent
[2]; [3]
  Ae. aegypti Minimum Effective Dosage, M4: >1.500 mg/cm^2
[2]; [4]
  Ae. aegypti Minimum Effective Dosage, M5: 0.187 mg/cm^2
[2]; [5]
  Ae. aegypti Minimum Effective Dosage, M8: >1.500 mg/cm^2
[2]; [6]
  Ae. aegypti Minimum Effective Dosage, M9: >1.500 mg/cm^2
  Ae. aegypti Minimum Effective Dosage, M10: >1.500 mg/cm^2

## COc1ccc(CO)c2c1C=CC(C)(C)O2 [Compound 4]
[1]
  An. albimanus Minimum Effective Dosage, M4: >1.500 mg/cm^2
  An. albimanus Minimum Effective Dosage, M5: >1.500 mg/cm^2
  An. albimanus Minimum Effective Dosage, M8: >1.500 mg/cm^2
  An. albimanus Minimum Effective Dosage, M9: 0.750 mg/cm^2
  An. albimanus Minimum Effective Dosage, M10: >1.500 mg/cm^2
[2]
  mosquito repellent activity against Ae. aegypti (in words): mixed results
[2]; [3]
  Ae. aegypti Minimum Effective Dosage, M4: >1.500 mg/cm^2
[2]; [4]
  Ae. aegypti Minimum Effective Dosage, M5: 0.375 mg/cm^2
[2]; [5]
  Ae. aegypti Minimum Effective Dosage, M8: 0.375 mg/cm^2
[2]; [6]
  Ae. aegypti Minimum Effective Dosage, M9: 0.750 mg/cm^2
  Ae. aegypti Minimum Effective Dosage, M10: >1.500 mg/cm^2

## COC(=O)c1ccc2c(c1)C=CC(C)(C)O2 [Compound 5]
[1]
  An. albimanus Minimum Effective Dosage, M4: 0.187 mg/cm^2
  An. albimanus Minimum Effective Dosage, M5: 0.375 mg/cm^2
  An. albimanus Minimum Effective Dosage, M8: >1.500 mg/cm^2
  An. albimanus Minimum Effective Dosage, M9: 0.187 mg/cm^2
  An. albimanus Minimum Effective Dosage, M10: 0.750 mg/cm^2
[2]
  mosquito repellent activity against Ae. aegypti (in words): mixed results
[2]; [3]
  Ae. aegypti Minimum Effective Dosage, M4: >1.500 mg/cm^2
[2]; [4]
  Ae. aegypti Minimum Effective Dosage, M5: 0.375 mg/cm^2
[2]; [5]
  Ae. aegypti Minimum Effective Dosage, M8: 0.187 mg/cm^2
[2]; [6]
  Ae. aegypti Minimum Effective Dosage, M9: 0.375 mg/cm^2
  Ae. aegypti Minimum Effective Dosage, M10: >1.500 mg/cm^2

## COC(=O)c1cccc2c1C=CC(C)(C)O2 [Compound 6]
[2]
  mosquito repellent activity against Ae. aegypti (in words): ineffective at the highest dosage tested
[2]; [7]
  Ae. aegypti Minimum Effective Dosage, M4: >0.375 mg/cm^2
[2]; [8]
  Ae. aegypti Minimum Effective Dosage, M5: >0.375 mg/cm^2
[2]; [9]
  Ae. aegypti Minimum Effective Dosage, M8: >0.375 mg/cm^2

## CC1(C)C=Cc2cc(CO)ccc2O1 [Compound 7]
[2]
  mosquito repellent activity against Ae. aegypti (in words): ineffective
[2]; [7]
  Ae. aegypti Minimum Effective Dosage, M4: >0.187 mg/cm^2
[2]; [8]
  Ae. aegypti Minimum Effective Dosage, M5: >0.187 mg/cm^2
[2]; [9]
  Ae. aegypti Minimum Effective Dosage, M8: >0.187 mg/cm^2

## COC(=O)c1ccc2c(c1)OC(C)(C)C=C2 [Compound 8]
[2]
  mosquito repellent activity against Ae. aegypti (in words): ineffective
[2]; [7]
  Ae. aegypti Minimum Effective Dosage, M4: >0.375 mg/cm^2
[2]; [8]
  Ae. aegypti Minimum Effective Dosage, M5: >0.375 mg/cm^2
[2]; [9]
  Ae. aegypti Minimum Effective Dosage, M8: >0.375 mg/cm^2

## COC(=O)Cc1ccc2c(c1)C=CC(C)(C)O2 [Compound 10]
[2]; Table 2, human subject F1, highest concentration 1.500 mg/cm^2
  Ae. aegypti Minimum Effective Dosage, F1: 0.375 mg/cm^2
[2]; Table 2, human subject M1, highest concentration 1.500 mg/cm^2
  Ae. aegypti Minimum Effective Dosage, M1: 0.750 mg/cm^2
[2]; Table 2, human subject M2, highest concentration 1.500 mg/cm^2
  Ae. aegypti Minimum Effective Dosage, M2: 0.375 mg/cm^2
[2]; Table 2, mean of 3 volunteers
  Ae. aegypti Minimum Effective Dosage, Average: 0.500 mg/cm^2
[2]; [7]
  Ae. aegypti Minimum Effective Dosage, M4: >0.375 mg/cm^2
[2]; [8]
  Ae. aegypti Minimum Effective Dosage, M5: >0.375 mg/cm^2
[2]; [9]
  Ae. aegypti Minimum Effective Dosage, M8: >0.375 mg/cm^2
